Results on 89 compounds are retold here after PubChem BioAssay AID816 (SRMLSC, 2007).

Activity calls are given as the source filed them. The rule behind the calls is not given here.

This assay concerns S. cerevisiae GAL1 promoter reporter activation counterscreen. The experiment in a line: yeast Gal1p promoter activation – S. cerevisiae, artefact control for yeast lifespan extension project (AID 816).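 Note: yeast growth read after 24 h of incubation with compounds.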
As to `CCn1ncc(/C=N/NC(=O)c2ccc3c(c2)OCO3)c1C`, the EC50 (as a rule, the concentration that produces a half-maximal response) is > 40 µM (inactive).

Regarding `CC(C)C(OC(=O)CN1C(=O)COc2ccccc21)C(=O)NC1CCCC1` (centres undefined), the EC50 was > 40 µM (inactive).

Turning to `CCCCn1c(=O)c(C(=O)Nc2cnccn2)c(O)c2ccccc21`, the EC50 is > 40 µM (inactive).

`Cc1cc(C2C(C#N)=C(N)Oc3n[nH]c(C)c32)c(C)s1` (centres undefined): the EC50 was > 40 µM (inactive).

For `COC(=O)C1=C(N)OC2=C(C(=O)CC(C)(C)C2)C1c1cccs1` (centres undefined), the EC50 is > 40 µM (inactive).

As to `O=c1c2ccccc2nc(-c2ccc(Cl)c(Cl)c2)n1O`, the EC50 is > 40 µM (inactive).

On to `CCNCCNC(=O)c1c(O)c2cccc3c2n(c1=O)CCC3`, for which the EC50 was > 40 µM (inactive).

For the compound `Cc1oc2c(c(=O)c1C)C(=O)CC(c1ccccc1)C2` (centres undefined), the EC50 was > 40 µM (inactive).

As to `CCOC(=O)Cc1csc(NC(=O)c2c(O)c3ccccc3n(CC(C)C)c2=O)n1`, the EC50 was > 40 µM (inactive).

For the compound `CC(C)(C)C(=O)Cn1c(=N)n(Cc2ccccc2)c2ccccc21`, the EC50 is > 40 µM (inactive).

On to `COc1ccc(-c2cc(C(F)(F)F)nc(S(C)(=O)=O)n2)cc1OC`, for which the EC50 was > 40 µM (inactive).

On to `Cc1cc(C(=O)CN2C(=O)NC(C)(CC(C)C)C2=O)c(C)n1-c1ccc2c(c1)OCO2` (centres undefined), for which the EC50 was > 40 µM (inactive).

For the compound `COc1cccc(/C=C/C(=O)c2c(O)cc(C)oc2=O)c1O`, the EC50 was > 40 µM (inactive).

On to `O=C(Nc1nc2ccccc2n1CCN1CCOCC1)c1cn(-c2ccccc2)nc1-c1ccccc1`, for which the EC50 is > 40 µM (inactive).

Regarding `O=CN(/C=C1\Sc2ccccc2C1=O)Cc1ccccc1`, the EC50 was > 40 µM (inactive).

As for `C/C(=N\NC(=O)c1ccccc1O)c1c(O)cc(C)oc1=O`, the EC50 is > 40 µM (inactive).

As to `CCCCC(=Nc1ccc(N)cc1)C1=C(O)C(C(=O)OC)C(C)(C)CC1=O` (centres undefined), the EC50 was > 40 µM (inactive).

On to `CCCC(=Nc1ccc(N)cc1)C1=C(O)C(C(=O)OC)C(C)(C)CC1=O` (centres undefined), for which the EC50 is > 40 µM (inactive).

On to `Oc1ccc(Br)cc1C=Nc1ccc2[nH]ncc2c1`, for which the EC50 is > 40 µM (inactive).

Regarding `CS(=O)(=O)c1nc(-c2ccco2)cc(C(F)(F)F)n1`, the EC50 was > 40 µM (inactive).

`O=C(c1ccccc1)c1nc2ccccc2[nH]c1=O`: the EC50 is > 40 µM (inactive).

In the case of `CC(=O)Oc1oc(-c2ccccc2)nc1C=Nc1ccccc1`, the EC50 was > 40 µM (inactive).

For the compound `Cc1ccc(Oc2nc3ccccc3n3c(C)nnc23)c(C)c1`, the EC50 was > 40 µM (inactive).

As for `Cc1cc(C)c(NC(=O)/C(=C/c2ccccc2)c2ccccc2)c(C)c1`, the EC50 is > 40 µM (inactive).

For the compound `COc1cc(/C=c2\sc3nc(-c4ccncc4)nn3c2=O)ccc1OC(C)=O`, the EC50 was > 40 µM (inactive).

As to `Cc1ccc(N(C)C(=O)Oc2ccc(C(=O)c3ccc(Cl)cc3)cc2)cc1`, the EC50 was > 40 µM (inactive).

As for `O=C(NCc1ccco1)c1cc(C(=O)C2CCCCC2)c[nH]1`, the EC50 was > 40 µM (inactive).

For the compound `CN1C(=O)NC(c2ccc(O)cc2)C(C(=O)c2cccs2)C1(O)C(F)(F)F` (centres undefined), the EC50 is > 40 µM (inactive).

As for `CCCCNC(=O)/C(C#N)=C/c1cccnc1`, the EC50 was > 40 µM (inactive).

On to `O=S(=O)(Nc1cccc2c1CCCC2)c1ccc(Cl)cc1`, for which the EC50 is > 40 µM (inactive).

For `CC(C)Cn1c(=O)c(C(=O)Nc2cnccn2)c(O)c2ccccc21`, the EC50 was > 40 µM (inactive).

`Cc1n[nH]c(=O)n1-c1cccc(C(F)(F)F)c1`: the EC50 was > 40 µM (inactive).

On to `Cc1ccc(C(=O)c2no[n+]([O-])c2C(=O)c2ccc(C)cc2)cc1`, for which the EC50 is > 40 µM (inactive).

Regarding `CC(=O)Oc1ccc(N(C(C)=O)S(=O)(=O)c2ccc(C)c([N+](=O)[O-])c2)cc1`, the EC50 is > 40 µM (inactive).

On to `C=CCN(CC=C)c1nc2ccccc2nc1C(C#N)C(=O)OC(C)C` (centres undefined), for which the EC50 was > 40 µM (inactive).

Turning to `CC(=O)c1c(O)cc2n(c1=O)-c1ccc(Cl)cc1C2(C)C`, the EC50 was > 40 µM (inactive).

On to `CCOC(=O)c1nnn(-c2nonc2N)c1CN1CCc2ccccc2C1`, for which the EC50 is > 40 µM (inactive).

As to `COc1ccc(NC(=S)N2CCN(CCN=CC3=C(O)CC(c4ccccc4)CC3=O)CC2)cc1` (centres undefined), the EC50 is > 40 µM (inactive).

In the case of `CCN(CCO)C(=O)C12CCC(C)(C(=O)C1)C2(C)C` (centres undefined), the EC50 is > 40 µM (inactive).

`CCOC(=O)C1Cc2cc3c(cc2C1=O)CC(C(=O)OCC)C3=O` (centres undefined): the EC50 is > 40 µM (inactive).

On to `C=C1C(=O)C=C2CN(C(=O)c3ccccc3)[C@@](Cc3ccc(F)cc3)(C(=O)OC)[C@@H]12`, for which the EC50 is > 40 µM (inactive).

Consider `COc1ccc(NC(=O)/C(Cl)=C(/Cl)S(=O)Cc2ccc(C)cc2)cn1` (centres undefined), for which the EC50 was > 40 µM (inactive).

Consider `CCOc1ccc2nc(NCCNC(=O)Nc3ccccc3)c(C#N)cc2c1`, for which the EC50 was > 40 µM (inactive).

Turning to `Cc1ccc(NC(=O)C2C(=O)N(C)c3ccccc32)cc1` (centres undefined), the EC50 was > 40 µM (inactive).

With `CC(C)n1c(-c2ccccc2F)n[nH]c1=S`, the EC50 was > 40 µM (inactive).

As to `O=c1cc(-c2ccccc2Cl)oc2ccc([N+](=O)[O-])c(O)c12`, the EC50 was > 40 µM (inactive).

For `CCOc1cc(/C=C\[N+](=O)[O-])ccc1OCC(=O)Nc1ccccc1C`, the EC50 was > 40 µM (inactive).

Regarding `CCOC(=O)CCCNC(=O)COc1ccccc1C#N`, the EC50 was > 40 µM (inactive).

With `Cc1ccnc(-n2c(C)cc(/C=C3\C(=O)NC(=S)N(C)C3=O)c2C)c1`, the EC50 was > 40 µM (inactive).

`COc1cc(/C=C/C(=O)c2c(O)cc(C)oc2=O)cc(OC)c1O`: the EC50 was > 40 µM (inactive).

Take `CC[n+]1c(/C=C2\C=C(C)CC(C)(C)C2)sc2ccccc21`: the EC50 is > 40 µM (inactive).

Turning to `COc1cccc(/C=C2\C(=O)N(c3cccc(C)c3)C(=O)c3ccccc32)c1`, the EC50 is > 40 µM (inactive).

For the compound `COc1cnc(-c2ccccn2)nc1Sc1cccc(Cl)c1`, the EC50 is > 40 µM (inactive).

For the compound `CCC(=NCCc1c(C)[nH]c2ccc(C)cc12)C1=C(O)CC(c2ccccc2)CC1=O` (centres undefined), the EC50 is > 40 µM (inactive).

On to `CC1=CS(=O)(=O)CC1Sc1nc2ccccc2[nH]1` (centres undefined), for which the EC50 was > 40 µM (inactive).

For `O=C1/C(=C/c2cccnc2)CCC/C1=C\c1cccnc1`, the EC50 was > 40 µM (inactive).

For the compound `CCCCCSc1nc2c(c(=O)[nH]c(=O)n2C)n1C`, the EC50 was > 40 µM (inactive).

As to `N#Cc1cc(C(=O)c2cc(F)ccc2O)cn(-c2nccs2)c1=O`, the EC50 was > 40 µM (inactive).

For `COCCCNc1c2c3c(cccc3[nH]c1=O)C(=O)c1ccccc1-2`, the EC50 is > 40 µM (inactive).

For `c1cncc(-c2nn[nH]n2)c1`, the EC50 was > 40 µM (inactive).

As for `CCOC(=O)C1C(=O)C(C(C)=O)C(=O)CC1CC(C)SCC` (centres undefined), the EC50 is > 40 µM (inactive).

With `Cc1cc(C)n2cc(CSc3nnc(N)s3)nc2n1`, the EC50 was > 40 µM (inactive).

As for `Cc1nonc1NC(=O)CSc1nc(C2CCCCC2)nc2ccccc12`, the EC50 is > 40 µM (inactive).

For `CC(c1ccco1)N(C(=O)c1ccccc1NS(=O)(=O)c1cc([N+](=O)[O-])ccc1Cl)c1ccccn1` (centres undefined), the EC50 was > 40 µM (inactive).

Take `O=C1CC(c2ccccc2)CC(O)=C1C=NCCN1CCOCC1` (centres undefined): the EC50 was > 40 µM (inactive).

`COc1ccccc1N(CN1CCCC1=O)C(=O)c1c(F)cccc1F`: the EC50 is > 40 µM (inactive).

Consider `CC1=NN(Cc2ccccc2)C(=O)C1C(c1ccccc1)C(C#N)C#N` (centres undefined), for which the EC50 is > 40 µM (inactive).

On to `COc1ccc(/C=C/C(=O)C2C(=O)C=C(C)OC2=O)cc1O` (centres undefined), for which the EC50 was > 40 µM (inactive).

For `Cc1ccc(/C=C/C(=O)C2C(=O)c3ccccc3C2=O)cc1`, the EC50 was > 40 µM (inactive).

Consider `CCSc1ccccc1C(=O)n1nnc2ccccc21`, for which the EC50 was > 40 µM (inactive).

Take `CC1CCCCN1C(=S)Nc1ccc2nc3n(c(=O)c2c1)CCCCC3` (centres undefined): the EC50 is > 40 µM (inactive).

For `COc1ccc(CC(=O)Nc2ccc3c(c2)CCC3)cc1S(=O)(=O)N1CCOCC1`, the EC50 was > 40 µM (inactive).

As to `CCc1ccc2c(c1)CCCN2C(=O)c1ccccc1C(=O)O`, the EC50 is > 40 µM (inactive).

Turning to `CCOC(=O)/C(=C/c1ccc(OC(=O)c2ccccc2)cc1)C(C)=O`, the EC50 is > 40 µM (inactive).

In the case of `CCCCOC(=O)CSc1nc2c(c(=O)[nH]c(=O)n2C)n1C/C=C(\C)Cl`, the EC50 is > 40 µM (inactive).

With `COC(=O)C1=C(C(=O)OC)SC(=C2C(=S)C(C)(C)N(C(=O)C(C)C)c3ccccc32)S1`, the EC50 was > 40 µM (inactive).

With `O=c1cc(O)c2c(=O)n(-c3ccccc3)c3c(c2o1)CCCCC3`, the EC50 is > 40 µM (inactive).

Consider `CCc1nc(SCC(=O)c2ccc3c(c2)OCCO3)c2ccccc2n1`, for which the EC50 is > 40 µM (inactive).

On to `N=c1c2c(-c3ccccc3)c(-c3ccccc3)n(Cc3ccco3)c2ncn1CCCn1ccnc1`, for which the EC50 was > 40 µM (inactive).

Regarding `CCCCSc1nc(O)c(C2OC(=O)c3c2ccc(OC)c3OC)c(=O)n1C` (centres undefined), the EC50 is > 40 µM (inactive).

Turning to `CC(C)(C)C1CCc2[nH]nc(C(=O)O)c2C1` (centres undefined), the EC50 is > 40 µM (inactive).

For `CCOC(=O)C1C(c2cccs2)NC(=O)N(C)C1(O)C(F)(F)F` (centres undefined), the EC50 was > 40 µM (inactive).

For the compound `CC(C)OCCCNS(=O)(=O)c1ccc2ccccc2c1`, the EC50 was > 40 µM (inactive).

Regarding `CCOC(=O)C(=Cc1ccc(F)cc1)C(=O)OCC`, the EC50 is > 40 µM (inactive).

`Cc1ccc(N/C(C(Cl)=C(Cl)Cl)=C(/Cl)[N+](=O)[O-])c(C)c1`: the EC50 is > 40 µM (inactive).

In the case of `CC(=O)Oc1c(C(=O)c2nnc(C)o2)c(=O)n(C)c2ccccc12`, the EC50 is > 40 µM (inactive).

For the compound `CN1OC(c2ccccc2)=C(CO)C1c1ccccc1` (centres undefined), the EC50 was > 40 µM (inactive).

As to `O=C1C=CCC(/C=C/c2ccccc2)O1` (centres undefined), the EC50 was > 40 µM (inactive).

Take `O=Cc1ccccc1OS(=O)(=O)c1ccccc1`: the EC50 was > 40 µM (inactive).
